Data taken from patent US20150191462A1, “PYRROLIDINE DERIVATIVES AND THEIR USE AS COMPLEMENT PATHWAY MODULATORS” (priority 2012, published 2015).

Target: Recombinant human factor D (Homo sapiens, UniProt P00746)
Test: Human Complement Factor D Assay: Method 1
Format: biochemical
Conditions: Factor D inhibition, 10 nM factor D, Z-Lys-thiobenzyl substrate, fluorescence readout
Protocol: Human Complement Factor D Assay: Method 1 Recombinant human factor D (expressed in E. coli and purified using standard methods) at 10 nM concentration is incubated with test compound at various concentrations for 1 hour at room temperature in 0.1 M Hepes buffer, pH 7.5, containing 1 mM MgCl2, 1 M NaCl and 0.05% CHAPS. […] The increase in fluorescence is recorded at excitation of 485 nm and emission at 535 nm in a microplate spectrofluorimeter. IC50 values are calculated from percentage of inhibition of complement factor D-activity as a function of test compound concentration.

Recombinant human factor D, sequence (P00746 26-253): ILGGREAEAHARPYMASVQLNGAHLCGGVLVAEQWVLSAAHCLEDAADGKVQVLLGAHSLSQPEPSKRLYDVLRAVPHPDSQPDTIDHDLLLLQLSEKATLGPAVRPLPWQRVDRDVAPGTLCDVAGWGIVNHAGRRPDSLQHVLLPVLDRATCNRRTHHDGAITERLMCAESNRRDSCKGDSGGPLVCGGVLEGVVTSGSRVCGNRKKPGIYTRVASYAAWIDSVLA

| Structure (SMILES) | IC50 [nM] |
| --- | --- |
| Cc1cc2c(C(N)=O)nn(CC(=O)N3[C@@H]4C[C@@H]4C[C@H]3C(=O)Nc3cncc(C(F)(F)F)n3)c2c(C)n1 [Example 30, 5,7-dimethyl-1-(2-oxo-2-((1R,3S,5R)-3-((6-(trifluoromethyl)pyrazin-2-yl)carbamoyl)-2-azabicyclo[3.1.0]hexan-2-yl)ethyl)-1H-pyrazolo[3,4-c]pyridine-3-carboxamide] | 80 |
| NC(=O)n1cc(NC(=O)N2[C@@H]3C[C@@H]3C[C@H]2C(=O)Nc2cncc(Br)n2)c2ccccc21 [Example 31, (1R,3S,5R)-2-Aza-bicyclo[3.1.0]hexane-2,3-dicarboxylic acid 3-[(6-bromo-pyrazin-2-yl)-amide]2-[(1-carbamoyl-1H-indol-3-yl)-amide]] | 4 |
| C[C@@]1(F)C[C@@H](C(=O)Nc2cccc(Br)n2)N(C(=O)Nc2cn(C(N)=O)c3ccccc23)C1 [Example 34, (2S,4R)-4-Fluoro-4-methyl-pyrrolidine-1,2-dicarboxylic acid 2-[(6-bromo-pyridin-2-yl)-amide] 1-[(1-carbamoyl-1H-indol-3-yl)-amide]] | 14 |
| NC(=O)n1cc(NC(=O)N2CCC[C@H]2C(=O)Nc2cccc(Br)n2)c2ccccc21 [Example 35, (S)-Pyrrolidine-1,2-dicarboxylic acid 2-[(6-bromo-pyridin-2-yl)-amide]-1-[(1-carbamoyl-1H-indol-3-yl)-amide]] | 20 |
| NC(=O)n1cc(NC(=O)N2[C@@H]3C[C@@H]3C[C@H]2C(=O)Nc2cncc(C(F)(F)F)n2)c2ccccc21 [Example 36, (1R,3S,5R)-2-Aza-bicyclo[3.1.0]hexane-2,3-dicarboxylic acid 2-[(1-carbamoyl-1H-indol-3-yl)-amide] 3-[(6-trifluoromethyl-pyrazin-2-yl)-amide]] | 55 |
| NC(=O)n1cc(NC(=O)N2CCS[C@H]2C(=O)Nc2cccc(Br)n2)c2ccccc21 [Example 39, (S)-N2-(6-bromopyridin-2-yl)-N3-(1-carbamoyl-1H-indol-3-yl)thiazolidine-2,3-dicarboxamide] | 20 |

More lines, now with the values ahead:

| IC50 [nM] | Structure (SMILES) |
| --- | --- |
| 6 | Cc1cc2c(C(N)=O)nn(CC(=O)N3[C@@H]4C[C@@H]4C[C@H]3C(=O)Nc3cccc(C(F)(F)F)n3)c2c(C)n1 [Example 29, 5,7-dimethyl-1-(2-oxo-2-((1R,3S,5R)-3-((6-(trifluoromethyl)pyridin-2-yl)carbamoyl)-2-azabicyclo[3.1.0]hexan-2-yl)ethyl)-1H-pyrazolo[3,4-c]pyridine-3-carboxamide] |
| 5 | Cc1ncc(NC(=O)[C@@H]2C[C@H]3C[C@H]3N2C(=O)Nc2cn(C(N)=O)c3ccccc23)nc1Br [Example 32, (1R,3S,5R)-2-Aza-bicyclo[3.1.0]hexane-2,3-dicarboxylic acid 3-[(6-bromo-5-methyl-pyrazin-2-yl)-amide] 2-[(1-carbamoyl-1H-indol-3-yl)-amide]] |
| 8 | C[C@@]12C[C@@H](C(=O)Nc3cccc(Br)n3)N(C(=O)Nc3cn(C(N)=O)c4ccccc34)[C@@H]1C2 [Example 37, (1R,3S,5R)-5-Methyl-2-aza-bicyclo[3.1.0]hexane-2,3-dicarboxylic acid 3-[(6-bromo-pyridin-2-yl)-amide] 2-[(1-carbamoyl-1H-indol-3-yl)-amide]] |
| 10 | NC(=O)n1cc(NC(=O)N2C[C@H](F)[C@H](F)[C@H]2C(=O)Nc2cccc(Br)n2)c2ccccc21 [Example 38, (2R,3R,4S)-N2-(6-bromopyridin-2-yl)-N1-(1-carbamoyl-1H-indol-3-yl)-3,4-difluoropyrrolidine-1,2-dicarboxamide] |
